# Experimental data reported in patent US5994365A, “Substituted diazaanthracene compounds having pharmaceutical utility” (Diazans Limited, priority 1998, dated 1999).
# Values joined by “and” are separate entries in the source; they are usually repeats but may differ in a detail not shown here. Equal entries are not always repeated.
# Columns and labels:
# Staph aureus = assay: Broth microdilution (NCCLS guidelines), MIC; type: cell-based, Staphylococcus aureus; set-up: MICs: unit not given beside the values; conditions: for 1st MIC / 2nd MIC: Table B
# Experimental: (§1) The dimer product of Example 15 was obtained in powder form. A stock solution of 1280 mg/L of the dimer in dimethylsulfoxide (DMSO) was prepared and stored at room temperature in a foil-wrapped screw-capped tube (10 ml). Subsequent dilutions were prepared using cation-adjusted Mueller-Hinton broth (50 mg/L Mg). […] It was resuspended upon mixing each time an aliquot was taken from the solution.
# (§2) Approximately 100 varied bacterial isolates were initially collected for screening, along with 9 ATCC organisms. Forty additional strains of Staphylococcus species were subsequently screened. All isolates were identified according to generally accepted lab protocol.
# (§3) Broth microdilution was performed according to NCCLS guidelines. Microdilution panels were prepared using doubling dilutions of the dimer in ~250 μl plastic, 96-well trays. Inoculum suspension equal to a 0.5 McFarland standard were further diluted and added to the microdilution trays to achieve a final inoculum of 5×10^5 CFU/ml (5×10^4 CFU/well). Colony counts were performed to confirm the final inoculum, as well as its purity. Each strain was also tested in a growth control well containing only MHB for viability.
# (§4) Microdilution trays were incubated at 35° C. in ambient air or 5% CO2 as appropriate for 16-20 hours. After incubation, the minimal inhibitory concentration (MIC) was defined as the lowest concentration of the dimer with no evidence of growth. Since 10 or more strains of most organisms were tested; a range of MICs was determined for each organism, as well as the concentration of the dimer that inhibited 50% of the strains (MIC50) and the concentration of the dimer that inhibited 90% of the strains (MIC90).
# ATCC S. epid 14990 [1] = assay: Broth microdilution (NCCLS guidelines), MIC; type: cell-based; conditions: for MICs: in µg/mL
# Experimental: as §1, §2, §3, §4
# Acinetobacter = assay: Broth microdilution (NCCLS guidelines), MIC; type: cell-based; conditions: Table A, 5 strains
# Experimental: as §1, §2, §3, §4
# B. cepacia = assay: Broth microdilution (NCCLS guidelines), MIC; type: cell-based; conditions: Table A, 5 strains
# Experimental: as §1, §2, §3, §4
# Enterobacteriaceae = assay: Broth microdilution (NCCLS guidelines), MIC; type: cell-based; conditions: Table A, 10 strains
# Experimental: as §1, §2, §3, §4
# [2] = tested on: Vancomycin resistant Enterococcus (VRE); assay: Broth microdilution (NCCLS guidelines), MIC; type: cell-based; conditions: Table A
# Experimental: as §1, §2, §3, §4
# [3] = tested on: Vancomycin susceptible Enterococcus (VSE); assay: Broth microdilution (NCCLS guidelines), MIC; type: cell-based; conditions: Table A
# Experimental: as §1, §2, §3, §4
# ATCC EC 25922 = assay: Broth microdilution (NCCLS guidelines), MIC; type: cell-based, Escherichia coli; conditions: Table A
# Experimental: as §1, §2, §3
# Microdilution trays were incubated at 35° C. in ambient air or 5% CO2 as appropriate for 16-20 hours. […]
# S. aureus = assay: Minimal bactericidal concentration (MBC), 99.9% kill; type: cell-based, Staphylococcus aureus
# Experimental: as §3
# (§5) Various isolates were also tested for minimal bactericidal concentration (MBC) (see Tables D and F).
# Subbed clear wells (50 μl) Inoculum 5 × 10^4 /well
# 99.9% kill = 50 cols/well
# (§6) Subbed 50 μl of ≤5 clear wells
# MRSA = assay: as above; type: cell-based, Staphylococcus aureus; conditions: Table F
# Experimental: as §3, §5, §6
# ATCC S. epid 14990 [4] = assay: as above; type: cell-based
# Experimental: as §3, §5, §6
# [5] = strain S. aureus 1 (line under ATCC 25923)
# [6] = Table C, Pip/Taz S. aureus, 10 strains, solution 14 days old
# [7] = Table C, S. aureus, 10 strains, solution 14 days old
# [8] = Table E, Pip/Taz SA, 10 strains, fresh solution
# [9] = Table E, S. aureus, 10 strains, fresh solution
# [10] = Table G footnote, ATCC 25923, methicillin susceptible
# [11] = Table G, S. aureus (2nd clinical isolate collection), 10 strains
# [12] = Table G, S. aureus (pip-tazo study), 10 strains
# [13] = Table G footnote, ATCC 14990 (coag neg staph)
substance,measurement,setting,value
"10,10'-bis(3,6-dimethyl-5,10-dihydro-1,8-diazaanthracen-5-one) and 5,5'-bis(3,6-dimethyl-5,10-dihydro-1,8-diazaanthracen-10-one) [Example 15]",MIC50,"Staph aureus; Table A, 12 strains",0.5 µg/mL
same,MIC90,"Staph aureus; Table A, 12 strains",1.0 µg/mL
same,Range of MICs,"Staph aureus; Table A, 12 strains",.0625 to 1.0 mg/L
same,MIC,"Staph aureus; Table A, ATCC MSSA 25923",0.0625 µg/mL
same,MIC,"Staph aureus; Table A, ATCC MSSA 29213",1.0 µg/mL
same,1st MIC,Staph aureus; [5],0.0625 µg/mL
same,2nd MIC,Staph aureus; [5],0.0625 µg/mL
same,1st MIC,Staph aureus; strain S. aureus 2,1 µg/mL
same,2nd MIC,Staph aureus; strain S. aureus 2,1 µg/mL
same,1st MIC,Staph aureus; strain S. aureus 3,0.5 µg/mL
same,2nd MIC,Staph aureus; strain S. aureus 3,0.125 µg/mL
same,1st MIC,Staph aureus; strain S. aureus 4,1 µg/mL
same,2nd MIC,Staph aureus; strain S. aureus 4,1 µg/mL
same,1st MIC,Staph aureus; strain S. aureus 5,1 µg/mL
same,1st MIC,Staph aureus; strain S. aureus 6,0.125 µg/mL
same,2nd MIC,Staph aureus; strain S. aureus 6,0.25 µg/mL
same,1st MIC,Staph aureus; strain S. aureus 7,0.5 µg/mL
same,2nd MIC,Staph aureus; strain S. aureus 7,0.5 µg/mL
same,1st MIC,Staph aureus; strain S. aureus 8,0.5 µg/mL
same,2nd MIC,Staph aureus; strain S. aureus 8,1 µg/mL
same,MICs,"Staph aureus; Table C, ATCC MSSA 25923, solution 14 days old, listed as Dimer",8 and > 16
same,MICs,"Staph aureus; Table C, ATCC MSSA 29213, solution 14 days old, listed as Dimer, in µg/mL",4 and 8
same,MIC50,Staph aureus; [6],2 µg/mL
same,MIC90,Staph aureus; [6],8 µg/mL
same,Range of MICs,"Staph aureus; Table C, Pip/Taz S. aureus, 10 strains, solution 14 days old, in µg/mL",2-16
same,MIC50,Staph aureus; [7],4 µg/mL
same,MIC90,Staph aureus; [7],16 µg/mL
same,Range of MICs,"Staph aureus; Table C, S. aureus, 10 strains, solution 14 days old, in µg/mL",2-8
same,MIC,"Staph aureus; Table D, S. aureus 1",2 µg/mL
same,MIC,"Staph aureus; Table D, S. aureus 2",16 µg/mL
same,MIC,"Staph aureus; Table D, S. aureus 3",8 µg/mL
same,MIC,"Staph aureus; Table D, S. aureus 4",4 µg/mL
same,MIC,"Staph aureus; Table D, S. aureus 5",16 µg/mL
same,MIC,"Staph aureus; Table D, S. aureus 6",2 µg/mL
same,MIC,"Staph aureus; Table D, S. aureus 7",8 µg/mL
same,MIC,"Staph aureus; Table D, S. aureus 8",2 µg/mL
same,MIC,"Staph aureus; Table D, S. aureus 9",2 µg/mL
same,MIC,"Staph aureus; Table D, S. aureus 10",4 µg/mL
same,MICs,"Staph aureus; Table E, ATCC MSSA 25923, fresh solution, listed as Dimer, in µg/mL",0.125 and 0.25
same,MICs,"Staph aureus; Table E, ATCC MSSA 29213 (×2), fresh solution, in µg/mL",2
same,MIC50,Staph aureus; [8],1 µg/mL
same,MIC90,Staph aureus; [8],2 µg/mL
same,Range of MICs,"Staph aureus; Table E, Pip/Taz SA, 10 strains, fresh solution, in µg/mL",0.25-2
same,MIC50,Staph aureus; [9],0.5 µg/mL
same,MIC90,Staph aureus; [9],1 µg/mL
same,Range of MICs,"Staph aureus; Table E, S. aureus, 10 strains, fresh solution, in µg/mL",0.25-1
same,MIC,"Staph aureus; Table F, ATCC S. aureus 25923",0.25 µg/mL
same,MIC,"Staph aureus; Table F, ATCC S. aureus 29213",2 µg/mL
same,MIC,"Staph aureus; Table F, Pip/Taz S. aureus 1",2 µg/mL
same,MIC,"Staph aureus; Table F, Pip/Taz S. aureus 3",0.25 µg/mL
same,MIC,"Staph aureus; Table F, Pip/Taz S. aureus 7",1 µg/mL
same,MIC,"Staph aureus; Table F, S. aureus 1",0.25 µg/mL
same,MIC,"Staph aureus; Table F, S. aureus 2",1 µg/mL
same,MIC,"Staph aureus; Table F, S. aureus 8",0.5 µg/mL
same,MIC,Staph aureus; [10],0.25 µg/mL
same,MIC,"Staph aureus; Table G footnote, ATCC 29213, methicillin susceptible",2 µg/mL
same,MIC50,Staph aureus; [11],0.5 µg/mL
same,MIC90,Staph aureus; [11],1 µg/mL
same,Range of MICs,Staph aureus; [11],0.25 to 1 mg/L
same,MIC50,Staph aureus; [12],1 µg/mL
same,MIC90,Staph aureus; [12],2 µg/mL
same,Range of MICs,Staph aureus; [12],0.25 to 2 mg/L
same,MICs,"ATCC S. epid 14990 [1]; Table C, ATCC S. epid 14990 (×2), solution 14 days old",0.25
same,MICs,"ATCC S. epid 14990 [1]; Table E, ATCC S. epid 14990, fresh solution, * = skipped wells (second value), listed as Dimer",0.3125 and 0.5
same,MIC,"ATCC S. epid 14990 [1]; Table F, ATCC S. epid 14990",0.0312 µg/mL
same,MIC,ATCC S. epid 14990 [1]; [13],0.0312 µg/mL
same,MIC50,Acinetobacter,> 64 µg/mL
same,MIC90,Acinetobacter,> 64 µg/mL
same,Range of MICs,Acinetobacter,> 64 mg/L
same,MIC50,B. cepacia,> 64 µg/mL
same,MIC90,B. cepacia,> 64 µg/mL
same,Range of MICs,B. cepacia,≥ 64 mg/L
same,MIC50,Enterobacteriaceae,> 64 µg/mL
same,MIC90,Enterobacteriaceae,> 64 µg/mL
same,Range of MICs,Enterobacteriaceae,> 64 mg/L
same,MIC50,[2]; 12 strains,64 µg/mL
same,MIC90,[2]; 12 strains,> 64 µg/mL
same,Range of MICs,[2]; 12 strains,≥ 64 mg/L
same,MIC,[2]; ATCC VRE 51299,> 64 µg/mL
same,MIC50,[3]; 12 strains,> 64 µg/mL
same,MIC90,[3]; 12 strains,> 64 µg/mL
same,MIC,[3]; ATCC VSE 29212,> 64 µg/mL
same,MIC,ATCC EC 25922,> 64 µg/mL
same,MBC,"S. aureus; Table D, S. aureus 1",2 µg/mL
same,MBC,"S. aureus; Table D, S. aureus 2",> 16 µg/mL
same,MBC,"S. aureus; Table D, S. aureus 3",16 µg/mL
same,MBC,"S. aureus; Table D, S. aureus 4",8 µg/mL
same,MBC,"S. aureus; Table D, S. aureus 5",> 16 µg/mL
same,MBC,"S. aureus; Table D, S. aureus 6, skipped wells",> 16 µg/mL
same,MBC,"S. aureus; Table D, S. aureus 7",> 16 µg/mL
same,MBC,"S. aureus; Table D, S. aureus 8, skipped wells",> 16 µg/mL
same,MBC,"S. aureus; Table F, ATCC S. aureus 25923",4 µg/mL
same,MBC,"S. aureus; Table F, ATCC S. aureus 29213, skipped wells",> 16 µg/mL
same,MBC,"S. aureus; Table F, Pip/Taz S. aureus 1",8 µg/mL
same,MBC,"S. aureus; Table F, Pip/Taz S. aureus 3",4 µg/mL
same,MBC,"S. aureus; Table F, Pip/Taz S. aureus 7",2 µg/mL
same,MBC,"S. aureus; Table F, S. aureus 1, skipped wells",4 µg/mL
same,MBC,"S. aureus; Table F, S. aureus 2",1 µg/mL
same,MBC,"S. aureus; Table F, S. aureus 8, skipped wells",≥ 8 µg/mL
same,MBC,S. aureus; [10],4 µg/mL
same,MBC,"S. aureus; Table G footnote, ATCC 29213, methicillin susceptible, skipped wells",16 µg/mL
same,MBC,MRSA; MRSA 2,16 µg/mL
same,MBC,"MRSA; MRSA 4, skipped wells",> 16 µg/mL
same,MBC,MRSA; MRSA 6,2 µg/mL
same,MBC,"ATCC S. epid 14990 [4]; Table F, ATCC S. epid 14990",> 0.5 µg/mL
same,MBC,ATCC S. epid 14990 [4]; [13],≥ 0.5 µg/mL
